Assays:
[1] = test system: MOLM-13 cells; test: MOLM-13 Cellular Assay; assay type: cell-based; conditions: Homo sapiens, 72 hours exposure, cell viability by CellTiter-Glo
Description: The day prior to assay set-up, cells were pelleted, resuspended in fresh media, counted, and cells were plated at 0.4×10^6 cell/mL in a T150 flask. […] Cells were exposed to different concentrations of test compounds at 37° C., 5% CO2 for 72 hours immediately after seeding.

[2] = target: T1, human DHODH (Homo sapiens, UniProt Q02127); test: DHODH Enzymatic Assay; assay type: biochemical; conditions: purified human DHODH; DCIP absorbance, end-point mode
T1 construct: purchased Proteros PR-0044
T1 sequence (Q02127 whole entry): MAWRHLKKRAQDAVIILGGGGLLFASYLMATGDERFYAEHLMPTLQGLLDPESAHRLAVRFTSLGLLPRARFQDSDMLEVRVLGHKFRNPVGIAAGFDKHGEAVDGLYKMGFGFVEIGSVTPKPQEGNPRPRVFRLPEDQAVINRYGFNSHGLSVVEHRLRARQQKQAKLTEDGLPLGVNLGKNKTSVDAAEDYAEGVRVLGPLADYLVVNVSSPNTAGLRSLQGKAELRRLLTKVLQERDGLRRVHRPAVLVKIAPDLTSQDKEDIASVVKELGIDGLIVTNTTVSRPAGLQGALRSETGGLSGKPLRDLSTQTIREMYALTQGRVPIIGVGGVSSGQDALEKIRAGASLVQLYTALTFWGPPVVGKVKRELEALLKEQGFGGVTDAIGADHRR
Outline: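 Purified human DHODH activity read as absorbance of DCIP, the terminal electron acceptor, in […] pH 7.5, 150 mM NaCl, 0.5 mM EDTA, 0.1% Triton X-100. Reaction started with a substrate mix of 20 mM DHO, 5 mM CoQ6 and 1 mM DCIP in assay buffer.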

SMILES	EC50 [1]	EC50 [2]
CCn1c(CO)nn(-c2nc(O[C@@H](C)C(F)(F)F)c(C(=O)Nc3c(C)cc(Cl)nc3OC)cc2F)c1=O [Example 113, N-(6-Chloro-2-methoxy-4-methyl-3-pyridyl)-6-[4-ethyl-3-(hydroxymethyl)-5-oxo-1,2,4-triazol-1-yl]-5-fluoro-2-[(1S)-2,2,2-trifluoro-1-methyl-ethoxy]pyridine-3-carboxamide]	0.416 nM	1.07 nM
CCn1c(CO)nn(-c2nc(O[C@@H](C)C(F)(F)F)c(C(=O)Nc3c(C)cc(C)nc3OC)cc2F)c1=O [Example 114, 6-[4-Ethyl-3-(hydroxymethyl)-5-oxo-1,2,4-triazol-1-yl]-5-fluoro-N-(2-methoxy-4,6-dimethyl-3-pyridyl)-2-[(1S)-2,2,2-trifluoro-1-methyl-ethoxy]pyridine-3-carboxamide]	0.368 nM	0.415 nM
Cc1n[nH]c(Cl)c1NC(=O)c1cc(F)c(-n2nc(CF)n(CCO)c2=O)nc1O[C@@H](C)C(F)(F)F [Example 115, N-(5-Chloro-3-methyl-1H-pyrazol-4-yl)-5-fluoro-6-[3-(fluoromethyl)-4-(2-hydroxyethyl)-5-oxo-1,2,4-triazol-1-yl]-2-[(1S)-2,2,2-trifluoro-1-methyl-ethoxy]pyridine-3-carboxamide]	1.25 nM	4.1 nM
Cc1ccnc(Cl)c1NC(=O)c1cc(F)c(-n2nc(CF)n(CCO)c2=O)nc1O[C@@H](C)C(F)(F)F [Example 116, N-(2-Chloro-4-methyl-3-pyridyl)-5-fluoro-6-[3-(fluoromethyl)-4-(2-hydroxyethyl)-5-oxo-1,2,4-triazol-1-yl]-2-[(1S)-2,2,2-trifluoro-1-methyl-ethoxy]pyridine-3-carboxamide]	7.23 nM	20.5 nM
CCn1c(CO)nn(-c2nc(O[C@@H](C)C(F)(F)F)c(C(=O)Nc3c(F)cnc(OC)c3C#N)cc2F)c1=O [Example 117, N-(3-Cyano-5-fluoro-2-methoxy-4-pyridyl)-6-[4-ethyl-3-(hydroxymethyl)-5-oxo-1,2,4-triazol-1-yl]-5-fluoro-2-[(1S)-2,2,2-trifluoro-1-methyl-ethoxy]pyridine-3-carboxamide]	15.6 nM	1.03 nM
CCn1c(CO)nn(-c2nc(O[C@@H](C)C(F)(F)F)c(C(=O)Nc3ncc(OC)cc3Cl)cc2F)c1=O [Example 118, N-(3-Chloro-5-methoxy-2-pyridyl)-6-[4-ethyl-3-(hydroxymethyl)-5-oxo-1,2,4-triazol-1-yl]-5-fluoro-2-[(1S)-2,2,2-trifluoro-1-methyl-ethoxy]pyridine-3-carboxamide]	6.38 nM	4.64 nM
CCn1c(CO)nn(-c2nc(O[C@@H](C)C(F)(F)F)c(C(=O)Nc3c(OC)cccc3OC)cc2F)c1=O [Example 119, N-(2,6-Dimethoxyphenyl)-6-[4-ethyl-3-(hydroxymethyl)-5-oxo-1,2,4-triazol-1-yl]-5-fluoro-2-[(1S)-2,2,2-trifluoro-1-methyl-ethoxy]pyridine-3-carboxamide]	1.48 nM	2.25 nM
CCn1c(CO)nn(-c2nc(O[C@@H](C)C(F)(F)F)c(C(=O)Nc3ccccc3C)cc2F)c1=O [Example 120, 6-[4-Ethyl-3-(hydroxymethyl)-5-oxo-1,2,4-triazol-1-yl]-5-fluoro-N-(o-tolyl)-2-[(1S)-2,2,2-trifluoro-1-methyl-ethoxy]pyridine-3-carboxamide]	< 0.169 nM	0.246 nM
CCn1c(CO)nn(-c2nc(O[C@@H](C)C(F)(F)F)c(C(=O)Nc3c(OC)n[nH]c3C)cc2F)c1=O [Example 121, 6-[4-Ethyl-3-(hydroxymethyl)-5-oxo-1,2,4-triazol-1-yl]-5-fluoro-N-(3-methoxy-5-methyl-1H-pyrazol-4-yl)-2-[(1S)-2,2,2-trifluoro-1-methyl-ethoxy]pyridine-3-carboxamide]	2.47 nM	23 nM
CCn1c(CO)nn(-c2nc(O[C@@H](C)C(F)(F)F)c(C(=O)Nc3c(OC)cncc3OC)cc2F)c1=O [Example 122, N-(3,5-Dimethoxy-4-pyridyl)-6-[4-ethyl-3-(hydroxymethyl)-5-oxo-1,2,4-triazol-1-yl]-5-fluoro-2-[(1S)-2,2,2-trifluoro-1-methyl-ethoxy]pyridine-3-carboxamide]	9.1 nM	> 100 nM
CCn1c(CO)nn(-c2nc(O[C@@H](C)C(F)(F)F)c(C(=O)Nc3c(Cl)n[nH]c3Cl)cc2F)c1=O [Example 123, N-(3,5-Dichloro-1H-pyrazol-4-yl)-6-[4-ethyl-3-(hydroxymethyl)-5-oxo-1,2,4-triazol-1-yl]-5-fluoro-2-[(1S)-2,2,2-trifluoro-1-methyl-ethoxy]pyridine-3-carboxamide]	0.208 nM	2.46 nM
CCn1c(CO)nn(-c2nc(O[C@@H](C)C(F)(F)F)c(C(=O)Nc3c(C(F)F)n[nH]c3C)cc2F)c1=O [Example 124, N-[3-(Difluoromethyl)-5-methyl-1H-pyrazol-4-yl]-6-[4-ethyl-3-(hydroxymethyl)-5-oxo-1,2,4-triazol-1-yl]-5-fluoro-2-[(1S)-2,2,2-trifluoro-1-methyl-ethoxy]pyridine-3-carboxamide]	0.371 nM	3.31 nM
CCn1c(CO)nn(-c2nc(O[C@@H](C)C(F)(F)F)c(C(=O)Nc3c(F)ccnc3OC)cc2F)c1=O [Example 125, 6-[4-Ethyl-3-(hydroxymethyl)-5-oxo-1,2,4-triazol-1-yl]-5-fluoro-N-(4-fluoro-2-methoxy-3-pyridyl)-2-[(1S)-2,2,2-trifluoro-1-methyl-ethoxy]pyridine-3-carboxamide]	1.11 nM	3.69 nM
CCn1c(CO)nn(-c2nc(O[C@@H](C)C(F)(F)F)c(C(=O)Nc3c(Cl)ccnc3OC)cc2F)c1=O [Example 126, N-(4-Chloro-2-methoxy-3-pyridyl)-6-[4-ethyl-3-(hydroxymethyl)-5-oxo-1,2,4-triazol-1-yl]-5-fluoro-2-[(1S)-2,2,2-trifluoro-1-methyl-ethoxy]pyridine-3-carboxamide]	0.328 nM	0.312 nM
CCn1c(C(C)(C)O)nn(-c2nc(O[C@@H](C)C(F)(F)F)c(C(=O)Nc3c(C)n[nH]c3C(F)(F)F)cc2F)c1=O [Example 128, 6-[4-Ethyl-3-(1-hydroxy-1-methyl-ethyl)-5-oxo-1,2,4-triazol-1-yl]-5-fluoro-N-[3-methyl-5-(trifluoromethyl)-1H-pyrazol-4-yl]-2-[(1S)-2,2,2-trifluoro-1-methyl-ethoxy]pyridine-3-carboxamide]	4.46 nM	9.55 nM

— US20220089568A1 (Janssen Biotech, Inc., priority 2019, published 2022)
